Test: mn = molality of the nth substance listed, in mol/kg
Settings: Liquid, Vibrating tube method

[Br-].[Li+] [lithium bromide] + CCO
Settings | mass density [kg/m3]
353.15 K, 39784 kPa, m1 = 0.9499 | 834.79
353.15 K, 39945 kPa, m1 = 2.833 | 939.73
353.15 K, 39986 kPa, m1 = 0.2335 | 790.37
353.15 K, 40152 kPa, m1 = 0.5972 | 813.43
353.15 K, 49925 kPa, m1 = 0.9499 | 842.49
353.15 K, 49993 kPa, m1 = 0.5972 | 821.26
353.15 K, 59926 kPa, m1 = 0.9499 | 849.56
353.15 K, 60014 kPa, m1 = 0.2335 | 805.45
353.15 K, 60014 kPa, m1 = 2.833 | 952.95
353.15 K, 60225 kPa, m1 = 0.5972 | 828.81
353.15 K, 69845 kPa, m1 = 0.9499 | 856.11
353.15 K, 69979 kPa, m1 = 0.5972 | 835.44
353.15 K, 79924 kPa, m1 = 0.9499 | 862.38
353.15 K, 79968 kPa, m1 = 2.833 | 964.64
353.15 K, 80004 kPa, m1 = 0.2335 | 818.76
353.15 K, 80139 kPa, m1 = 0.5972 | 841.77
353.15 K, 90021 kPa, m1 = 0.9499 | 868.33
353.15 K, 99895 kPa, m1 = 2.833 | 975.38
353.15 K, 99925 kPa, m1 = 0.9499 | 873.94
353.15 K, 99987 kPa, m1 = 0.2335 | 829.93
353.16 K, 1827 kPa, m1 = 2.272 | 878.19
353.16 K, 2037 kPa, m1 = 0.5972 | 777.89
353.16 K, 5076 kPa, m1 = 2.272 | 881.19
353.16 K, 30024 kPa, m1 = 2.833 | 932.51
353.16 K, 50031 kPa, m1 = 0.2335 | 798.55
353.16 K, 69784 kPa, m1 = 2.833 | 958.82
353.16 K, 89993 kPa, m1 = 0.5972 | 847.35
353.17 K, 10149 kPa, m1 = 0.5972 | 786.15
353.17 K, 70025 kPa, m1 = 0.2335 | 812.93
353.18 K, 100098 kPa, m1 = 0.5972 | 852.48
353.2 K, 79893 kPa, m1 = 3.368 | 991.32
353.2 K, 89986 kPa, m1 = 3.368 | 996.68
353.2 K, 99526 kPa, m1 = 3.368 | 1001.5
353.21 K, 1063 kPa, m1 = 3.368 | 935.92
353.21 K, 4909 kPa, m1 = 3.368 | 939.35
353.21 K, 10311 kPa, m1 = 3.368 | 944.02
353.21 K, 30003 kPa, m1 = 3.368 | 959.64
353.21 K, 40073 kPa, m1 = 3.368 | 966.87
353.21 K, 49925 kPa, m1 = 3.368 | 973.5
353.21 K, 59786 kPa, m1 = 3.368 | 979.72
353.21 K, 69928 kPa, m1 = 3.368 | 985.74
353.22 K, 19643 kPa, m1 = 3.368 | 951.68
373.11 K, 79585 kPa, m1 = 2.272 | 924.75
373.12 K, 2208 kPa, m1 = 3.368 | 920.02
373.12 K, 5044 kPa, m1 = 3.368 | 922.8
373.12 K, 19844 kPa, m1 = 3.368 | 936.43
373.12 K, 59597 kPa, m1 = 2.272 | 911.69
373.12 K, 69993 kPa, m1 = 2.272 | 918.69
373.13 K, 10014 kPa, m1 = 3.368 | 927.55
373.13 K, 20555 kPa, m1 = 0.5972 | 780.15
373.13 K, 69957 kPa, m1 = 0.2335 | 799.09
373.14 K, 2369 kPa, m1 = 1.462 | 814.46
373.14 K, 2757 kPa, m1 = 0.5972 | 759.44
373.14 K, 10024 kPa, m1 = 0.2335 | 743.18
373.14 K, 10201 kPa, m1 = 0.5972 | 767.99
373.14 K, 29963 kPa, m1 = 3.368 | 944.93
373.14 K, 29993 kPa, m1 = 0.5972 | 788.87
373.14 K, 39934 kPa, m1 = 3.368 | 952.72
373.14 K, 49924 kPa, m1 = 3.368 | 960.01
373.14 K, 60080 kPa, m1 = 3.368 | 966.95
373.14 K, 69925 kPa, m1 = 3.368 | 973.28
373.14 K, 79738 kPa, m1 = 0.5972 | 829.02
373.14 K, 80004 kPa, m1 = 0.2335 | 806.27
373.14 K, 80063 kPa, m1 = 3.368 | 979.45
373.14 K, 89993 kPa, m1 = 3.368 | 985.2
373.14 K, 89994 kPa, m1 = 2.272 | 930.92
373.14 K, 99876 kPa, m1 = 3.368 | 990.71
373.15 K, 1026 kPa, m1 = 0.9499 | 780.35
373.15 K, 1235 kPa, m1 = 0.2335 | 732.64
373.15 K, 1415 kPa, m1 = 2.833 | 892.25
373.15 K, 5002 kPa, m1 = 2.833 | 895.82
373.15 K, 5004 kPa, m1 = 0.2335 | 737.23
373.15 K, 5019 kPa, m1 = 1.462 | 817.48
373.15 K, 5412 kPa, m1 = 0.9499 | 785.62
373.15 K, 10004 kPa, m1 = 2.833 | 900.66
373.15 K, 10068 kPa, m1 = 0.9499 | 790.99
373.15 K, 19935 kPa, m1 = 0.9499 | 801.67
373.15 K, 19957 kPa, m1 = 2.833 | 909.82
373.15 K, 19985 kPa, m1 = 0.2335 | 754.93
373.15 K, 29956 kPa, m1 = 2.833 | 918.4
373.15 K, 29974 kPa, m1 = 0.9499 | 811.66
373.15 K, 39236 kPa, m1 = 0.9499 | 820.14
373.15 K, 39984 kPa, m1 = 2.833 | 926.44
373.15 K, 40001 kPa, m1 = 0.2335 | 774.75
373.15 K, 49979 kPa, m1 = 2.272 | 904.77
373.15 K, 50002 kPa, m1 = 2.833 | 933.93
373.15 K, 50023 kPa, m1 = 0.9499 | 829.23
373.15 K, 59924 kPa, m1 = 2.833 | 940.87
373.15 K, 59926 kPa, m1 = 0.9499 | 836.92
373.15 K, 59977 kPa, m1 = 1.462 | 867.61
373.15 K, 59987 kPa, m1 = 0.2335 | 791.31
373.15 K, 69784 kPa, m1 = 2.833 | 947.33
373.15 K, 69895 kPa, m1 = 0.9499 | 844.11
373.15 K, 69979 kPa, m1 = 1.462 | 874.66
373.15 K, 69994 kPa, m1 = 0.5972 | 822.13
373.15 K, 79936 kPa, m1 = 0.9499 | 850.88
373.15 K, 80021 kPa, m1 = 2.833 | 953.61
373.15 K, 89926 kPa, m1 = 2.833 | 959.33
373.15 K, 89934 kPa, m1 = 0.5972 | 835.63
373.15 K, 89945 kPa, m1 = 0.9499 | 857.23
373.15 K, 89956 kPa, m1 = 0.2335 | 812.23
373.15 K, 99845 kPa, m1 = 2.833 | 964.74
373.15 K, 99866 kPa, m1 = 0.5972 | 840.98
373.15 K, 99874 kPa, m1 = 0.2335 | 817.91
373.15 K, 99968 kPa, m1 = 0.9499 | 863.3

Source: the NIST ThermoML archive (doi:10.1021/je1003065)
